In patent US8791102B2, “Acetanilide sphingosine-1-phosphate receptor antagonists” (Exelixis, Inc., priority 2008, dated 2014):

Biological target: T1, human S1P1 receptors (Homo sapiens, UniProt P21453)
T1 construct: host or cells: HEK293
Assay: S1P1R antagonist assay (fluorescent membrane potential dye, cAMP readout)
Format: cell-based
Conditions: HEK293 cells expressing human S1P1 receptors and CNG channel; 500 nM NECA; S1P1R agonist 10 nM; 90 minutes; read-out: EC50 or IC50 value

T1 sequence (P21453 whole entry): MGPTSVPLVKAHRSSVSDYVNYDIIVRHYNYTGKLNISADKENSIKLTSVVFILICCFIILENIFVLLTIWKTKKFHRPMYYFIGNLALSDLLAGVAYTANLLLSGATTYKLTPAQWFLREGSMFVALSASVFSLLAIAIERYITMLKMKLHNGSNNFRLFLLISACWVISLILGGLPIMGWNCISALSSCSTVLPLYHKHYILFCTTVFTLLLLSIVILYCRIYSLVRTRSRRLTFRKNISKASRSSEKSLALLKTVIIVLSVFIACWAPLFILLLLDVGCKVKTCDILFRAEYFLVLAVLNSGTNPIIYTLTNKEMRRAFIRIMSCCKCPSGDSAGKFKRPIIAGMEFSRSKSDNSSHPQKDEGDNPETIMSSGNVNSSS

Row | IC50 | SMILES
1 | > 1000 nM | COc1ccc(CCC(=O)N[C@@H](COCc2ccccc2)C(=O)Nc2ccc(Oc3ccc(F)cc3)cc2)cc1Cl [Compound 81, (S)-3-(benzyloxy)-2-(3-(3-chloro-4-methoxyphenyl)propanamido)-N-(4-(4-fluorophenoxy)phenyl)propanamide]
2 | ≤ 300 nM | O=C(Nc1ccc(Oc2ccc(F)cc2)cc1)[C@@H]1C[C@@H](Cc2ccccc2)CN1C(=O)CN1CCc2ccccc2C1 [Compound 82, (2S,4R)-4-benzyl-1-(2-(3,4-dihydroisoquinolin-2(1H)-yl)acetyl)-N-(4-(4-fluorophenoxy)phenyl)pyrrolidine-2-carboxamide]
3 | ≤ 300 nM | O=C(Nc1ccc(Oc2ccc(F)cc2)cc1)[C@@H]1C[C@@H](Cc2ccccc2)CN1C(=O)CN1CCSCC1 [Compound 83, (2S,4R)-4-benzyl-N-(4-(4-fluorophenoxy)phenyl)-1-(2-thiomorpholinoacetyl)pyrrolidine-2-carboxamide]
4 | ≤ 300 nM | O=C(Nc1ccc(Oc2ccc(F)cc2)cc1)[C@@H]1C[C@@H](Cc2ccccc2)CN1C(=O)Cc1c(F)ccc(F)c1F [Compound 84, (2S,4R)-4-benzyl-N-(4-(4-fluorophenoxy)phenyl)-1-(2-(2,3,6-trifluorophenyl)acetyl)pyrrolidine-2-carboxamide]
5 | ≤ 300 nM | CSCCC(=O)N1C[C@H](Cc2ccccc2)C[C@H]1C(=O)Nc1ccc(Oc2ccc(F)cc2)cc1 [Compound 85, (2S,4R)-4-benzyl-N-(4-(4-fluorophenoxy)phenyl)-1-(3-(methylthio)propanoyl)pyrrolidine-2-carboxamide]
6 | ≤ 300 nM | CCOCCC(=O)N1C[C@H](Cc2ccccc2)C[C@H]1C(=O)Nc1ccc(Oc2ccc(F)cc2)cc1 [Compound 86, (2S,4R)-4-benzyl-1-(3-ethoxypropanoyl)-N-(4-(4-fluorophenoxy)phenyl)pyrrolidine-2-carboxamide]
7 | ≤ 300 nM | CS(=O)(=O)CC(=O)N1C[C@H](Cc2ccccc2)C[C@H]1C(=O)Nc1ccc(Oc2ccc(F)cc2)cc1 [Compound 87, (2S,4R)-4-benzyl-N-(4-(4-fluorophenoxy)phenyl)-1-(2-(methylsulfonyl)acetyl)pyrrolidine-2-carboxamide]
8 | ≤ 300 nM | COCCOCC(=O)N1C[C@H](Cc2ccccc2)C[C@H]1C(=O)Nc1ccc(Oc2ccc(F)cc2)cc1 [Compound 88, (2S,4R)-4-benzyl-N-(4-(4-fluorophenoxy)phenyl)-1-(2-(2-methoxyethoxy)acetyl)pyrrolidine-2-carboxamide]
9 | ≤ 300 nM | CN(C)C(=O)CCC(=O)N1C[C@H](Cc2ccccc2)C[C@H]1C(=O)Nc1ccc(Oc2ccc(F)cc2)cc1 [Compound 89, (2S,4R)-4-benzyl-1-(4-(dimethylamino)-4-oxobutanoyl)-N-(4-(4-fluorophenoxy)phenyl)pyrrolidine-2-carboxamide]
10 | ≤ 300 nM | COCCC(=O)N1C[C@H](Cc2ccccc2)C[C@H]1C(=O)Nc1ccc(Oc2ccc(F)cc2)cc1 [Compound 90, (2S,4R)-4-benzyl-N-(4-(4-fluorophenoxy)phenyl)-1-(3-methoxypropanoyl)pyrrolidine-2-carboxamide]
11 | ≤ 300 nM | O=C(CCC(=O)N1C[C@H](Cc2ccccc2)C[C@H]1C(=O)Nc1ccc(Oc2ccc(F)cc2)cc1)c1cccs1 [Compound 91, (2S,4R)-4-benzyl-N-(4-(4-fluorophenoxy)phenyl)-1-(4-oxo-4-(thien-2-yl)butanoyl)pyrrolidine-2-carboxamide]
12 | ≤ 300 nM | O=C(Nc1ccc(Oc2ccc(F)cc2)cc1)[C@@H]1C[C@@H](Cc2ccccc2)CN1C(=O)C1CCCO1 (stereo partly drawn) [Compound 92, (2S,4R)-4-benzyl-N-(4-(4-fluorophenoxy)phenyl)-1-(tetrahydrofuran-2-carbonyl)pyrrolidine-2-carboxamide]
13 | ≤ 300 nM | CC(=O)N1CCC[C@H]1C(=O)N1C[C@H](Cc2ccccc2)C[C@H]1C(=O)Nc1ccc(Oc2ccc(F)cc2)cc1 [Compound 93, (2S,4R)-1-((S)-1-acetylpyrrolidine-2-carbonyl)-4-benzyl-N-(4-(4-fluorophenoxy)phenyl)pyrrolidine-2-carboxamide]
14 | ≤ 300 nM | O=C(Nc1ccc(Oc2ccc(F)cc2)cc1)[C@@H]1C[C@@H](Cc2ccccc2)CN1C(=O)CSc1ncccn1 [Compound 94, (2S,4R)-4-benzyl-N-(4-(4-fluorophenoxy)phenyl)-1-(2-(pyrimidin-2-ylthio)acetyl)pyrrolidine-2-carboxamide]
15 | ≤ 300 nM | O=C(Nc1ccc(Oc2ccc(F)cc2)cc1)[C@@H]1C[C@@H](Cc2ccccc2)CN1C(=O)Cc1c(F)cccc1F [Compound 95, (2S,4R)-4-benzyl-1-(2-(2,6-difluorophenyl)acetyl)-N-(4-(4-fluorophenoxy)phenyl)pyrrolidine-2-carboxamide]
16 | ≤ 300 nM | O=C(Nc1ccc(Oc2ccc(F)cc2)cc1)[C@@H]1C[C@@H](Cc2ccccc2)CN1C(=O)CSc1ccncc1 [Compound 96, (2S,4R)-4-benzyl-N-(4-(4-fluorophenoxy)phenyl)-1-(2-(pyridin-4-ylthio)acetyl)pyrrolidine-2-carboxamide]

Row | IC50 | SMILES
17 | ≤ 300 nM | O=C(Nc1ccc(Oc2ccc(F)cc2)cc1)[C@@H]1C[C@@H](Cc2ccccc2)CN1C(=O)CN1C(=O)c2ccccc2C1=O [Compound 97]
18 | ≤ 300 nM | O=C(Nc1ccc(Oc2ccc(F)cc2)cc1)[C@@H]1C[C@@H](Cc2ccccc2)CN1C(=O)Cc1c[nH]c2ccccc12 [Compound 98, (2S,4R)-1-(2-(1H-indol-3-yl)acetyl)-4-benzyl-N-(4-(4-fluorophenoxy)phenyl)pyrrolidine-2-carboxamide]
19 | ≤ 300 nM | O=C(Nc1ccc(Oc2ccc(F)cc2)cc1)[C@@H]1C[C@@H](Cc2ccccc2)CN1C(=O)CN1C(=O)CSC1=S [Compound 99, (2S,4R)-4-benzyl-N-(4-(4-fluorophenoxy)phenyl)-1-(2-(4-oxo-2-thioxothiazolidin-3-yl)acetyl)pyrrolidine-2-carboxamide]
20 | ≤ 300 nM | COCCN1CCN(CC(=O)N2C[C@H](Cc3ccccc3)C[C@H]2C(=O)Nc2ccc(Oc3ccc(F)cc3)cc2)CC1 [Compound 100, (2S,4R)-4-benzyl-N-(4-(4-fluorophenoxy)phenyl)-1-(2-(4-(2-methoxyethyl)piperazin-1-yl)acetyl)pyrrolidine-2-carboxamide]
21 | > 1000 nM | O=C(Cc1cccc(OC(F)(F)F)c1)N[C@@H](COCc1ccccc1)C(=O)Nc1ccc(Oc2ccc(F)cc2)cc1 [Compound 102, (S)-3-(benzyloxy)-N-(4-(4-fluorophenoxy)phenyl)-2-(2-(3-(trifluoromethoxy)phenyl)acetamido)propanamide]
22 | > 1000 nM | O=C(CCCCc1ccccc1)N[C@@H](COCc1ccccc1)C(=O)Nc1ccc(Oc2ccc(F)cc2)cc1 [Compound 104, (S)—N-(3-(benzyloxy)-1-(4-(4-fluorophenoxy)phenylamino)-1-oxopropan-2-yl)-5-phenylpentanamide]
23 | > 1000 nM | O=C(CN1CCC(N2CCOCC2)CC1)N[C@@H](COCc1ccccc1)C(=O)Nc1ccc(Oc2ccc(F)cc2)cc1 [Compound 105, (S)-3-(benzyloxy)-N-(4-(4-fluorophenoxy)phenyl)-2-(2-(4-morpholinopiperidin-1-yl)acetamido)propanamide]
24 | ≤ 300 nM | O=C(Nc1ccc(Oc2ccc(F)cc2)cc1)[C@@H]1C[C@@H](Cc2ccccc2F)CN1C(=O)Cn1cncn1 [Compound 106, (2S,4R)-1-(2-(1H-1,2,4-triazol-1-yl)acetyl)-4-(2-fluorobenzyl)-N-(4-(4-fluorophenoxy)phenyl)pyrrolidine-2-carboxamide]
25 | ≤ 300 nM | O=C(Nc1ccc(Oc2ccc(F)cc2)cc1)[C@@H]1C[C@@H](Cc2ccccc2F)CN1C(=O)Cn1nccn1 [Compound 107, (2S,4R)-1-(2-(2H-1,2,3-triazol-2-yl)acetyl)-4-(2-fluorobenzyl)-N-(4-(4-fluorophenoxy)phenyl)pyrrolidine-2-carboxamide]
26 | ≤ 300 nM | O=C(Nc1ccc(Oc2ccc(F)cc2)cc1)[C@@H]1C[C@@H](Cc2c(F)cc(F)cc2F)CN1C(=O)Cn1cncn1 [Compound 108, (2S,4R)-1-(2-(1H-1,2,4-triazol-1-yl)acetyl)-N-(4-(4-fluorophenoxy)phenyl)-4-(2,4,6-trifluorobenzyl)pyrrolidine-2-carboxamide]
27 | > 1000 nM | CCN(CC)C1CCN(CC(=O)N[C@@H](COCc2ccccc2)C(=O)Nc2ccc(Oc3ccc(F)cc3)cc2)C1 (stereo partly drawn) [Compound 109, (2S)-3-(benzyloxy)-2-(2-(3-(diethylamino)pyrrolidin-1-yl)acetamido)-N-(4-(4-fluorophenoxy)phenyl)propanamide]
28 | > 1000 nM | O=C(CN1CCN(CC2CCCO2)CC1)N[C@@H](COCc1ccccc1)C(=O)Nc1ccc(Oc2ccc(F)cc2)cc1 (stereo partly drawn) [Compound 110, (2S)-3-(benzyloxy)-N-(4-(4-fluorophenoxy)phenyl)-2-(2-(4-((tetrahydrofuran-2-yl)methyl)piperazin-1-yl)acetamido)propanamide]
29 | > 1000 nM | CC(C)N1CCN(CC(=O)N[C@@H](COCc2ccccc2)C(=O)Nc2ccc(Oc3ccc(F)cc3)cc2)CC1 [Compound 111, (S)-3-(benzyloxy)-N-(4-(4-fluorophenoxy)phenyl)-2-(2-(4-isopropylpiperazin-1-yl)acetamido)propanamide]
30 | > 1000 nM | O=C(CN1CCN(c2ncccc2C(F)(F)F)CC1)N[C@@H](COCc1ccccc1)C(=O)Nc1ccc(Oc2ccc(F)cc2)cc1 [Compound 112, (S)-3-(benzyloxy)-N-(4-(4-fluorophenoxy)phenyl)-2-(2-(4-(3-(trifluoromethyl)pyridin-2-yl)piperazin-1-yl)acetamido)propanamide]
31 | > 1000 nM | CCN1CCN(CC(=O)N[C@@H](COCc2ccccc2)C(=O)Nc2ccc(Oc3ccc(F)cc3)cc2)CC1 [Compound 114, (S)-3-(benzyloxy)-2-(2-(4-ethylpiperazin-1-yl)acetamido)-N-(4-(4-fluorophenoxy)phenyl)propanamide]
32 | ≤ 300 nM | O=C(Nc1ccc(Oc2ccc(F)cc2)cc1)[C@@H]1C[C@@H](Cc2ccccc2)CN1C(=O)CN1CCOCC1 [Compound 116, (2S,4R)-4-benzyl-N-(4-(4-fluorophenoxy)phenyl)-1-(2-morpholinoacetyl)pyrrolidine-2-carboxamide]
